# Experiments:
# Experiment in all cases: relative viability (nuclei count vs DMSO), 5 days (fraction); higher = more cells survive
# Selisistat + Crizotinib = compound: C1CC(C2=C(C1)C3=C(N2)C=CC(=C3)Cl)C(=O)N [Selisistat] + C[C@@H](Oc1cc(-c2cnn(C3CCNCC3)c2)cnc1N)c1c(Cl)ccc(F)c1Cl [Crizotinib] (partner 1 µM)
# In short: (§1)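 Relative viability is defined as nuclei in treated wells over nuclei in vehicle wells. Duplicate plates were run and medians reported. Lung cancer cell lines in 1536-well plates were dosed by pin tool one day after seeding, with one drug or with a fixed anchor-drug dose plus five library-drug doses (not always all listed) in √10 steps, and nuclei were counted after 5 days.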
# Selisistat + Linsitinib = compound: C1CC(C2=C(C1)C3=C(N2)C=CC(=C3)Cl)C(=O)N [Selisistat] + C[C@]1(O)C[C@@H](c2nc(-c3ccc4ccc(-c5ccccc5)nc4c3)c3c(N)nccn32)C1 [Linsitinib] (partner 1 µM)
# In short: as §1
# Serdemetan + Palbociclib = compound: c1ccc2c(CCNc3ccc(Nc4ccncc4)cc3)c[nH]c2c1 [Serdemetan] + CC(=O)c1c(C)c2cnc(Nc3ccc(N4CCNCC4)cn3)nc2n(C2CCCC2)c1=O [Palbociclib] (partner 0.5 µM)
# In short: as §1
# Serdemetan + Decitabine = compound: c1ccc2c(CCNc3ccc(Nc4ccncc4)cc3)c[nH]c2c1 [Serdemetan] + Nc1ncn([C@H]2C[C@H](O)[C@@H](CO)O2)c(=O)n1 [Decitabine] (partner 2 µM)
# In short: as §1
Cell Line,relative viability (Selisistat + Crizotinib; first compound 0.4 µM),relative viability (Selisistat + Crizotinib; first compound 1.265 µM),relative viability (Selisistat + Crizotinib; first compound 4 µM),relative viability (Selisistat + Crizotinib; first compound 12.65 µM),relative viability (Selisistat + Crizotinib; first compound 40 µM),relative viability (Selisistat + Linsitinib; first compound 0.4 µM),relative viability (Selisistat + Linsitinib; first compound 1.265 µM),relative viability (Selisistat + Linsitinib; first compound 4 µM),relative viability (Selisistat + Linsitinib; first compound 12.65 µM),relative viability (Selisistat + Linsitinib; first compound 40 µM),relative viability (Serdemetan + Palbociclib; first compound 0.04 µM),relative viability (Serdemetan + Palbociclib; first compound 0.1265 µM),relative viability (Serdemetan + Palbociclib; first compound 0.4 µM),relative viability (Serdemetan + Palbociclib; first compound 1.265 µM),relative viability (Serdemetan + Palbociclib; first compound 4 µM),relative viability (Serdemetan + Decitabine; first compound 0.04 µM),relative viability (Serdemetan + Decitabine; first compound 0.1265 µM),relative viability (Serdemetan + Decitabine; first compound 0.4 µM),relative viability (Serdemetan + Decitabine; first compound 1.265 µM),relative viability (Serdemetan + Decitabine; first compound 4 µM)
201T,1.04,1.03,0.986,1.02,1.01,1.08,1.02,0.998,0.967,1.06,0.367,0.353,0.341,0.33,0.327,0.863,0.801,0.783,0.489,0.593
A549,0.716,0.742,0.698,0.709,0.728,0.664,0.587,0.484,0.649,0.622,–,–,–,–,–,0.263,0.245,0.261,0.291,0.198
A-427,0.874,0.819,0.841,0.917,0.921,1.21,1.05,1.1,1.15,1.15,0.533,0.497,0.525,0.462,0.444,0.555,0.56,0.606,0.513,0.45
ABC-1,1.01,1.19,1.1,0.933,0.881,0.649,0.652,0.788,0.726,0.721,0.553,0.586,0.694,0.611,0.459,0.896,1.01,1.25,0.921,0.844
BEN,0.843,0.76,0.748,0.72,0.863,0.971,0.986,0.812,0.762,0.827,0.513,0.494,0.504,0.365,0.449,0.649,0.612,0.726,0.631,0.647
CAL-12T,0.668,0.518,0.795,0.626,0.422,0.85,0.799,0.82,0.784,0.862,0.467,0.422,0.35,0.424,0.539,–,–,–,–,–
COR-L23,0.621,0.664,0.635,0.537,0.581,1.04,0.872,1.04,0.899,0.876,0.235,0.3,0.349,0.213,0.236,0.4,0.443,0.435,0.39,0.353
COR-L 105,0.716,0.786,0.748,0.745,0.741,0.755,0.918,0.933,1.02,0.914,0.4,0.403,0.359,0.297,0.411,0.65,0.646,0.574,0.52,0.626
Calu-6,0.778,0.602,0.764,0.682,0.633,0.932,0.964,0.981,0.975,0.939,–,–,–,–,–,–,–,–,–,–
ChaGo-K-1,1.15,1.04,–,1.08,1.09,–,–,–,–,–,0.864,0.746,0.488,0.271,0.296,0.488,0.42,0.421,0.266,0.303
EBC-1,0.2,0.19,0.191,0.169,0.184,0.92,0.899,0.892,0.8,0.844,–,–,–,–,–,–,–,–,–,–
EKVX,0.964,0.925,1.01,0.896,0.983,1.14,0.982,0.983,0.914,0.939,0.456,0.374,–,–,0.282,0.322,0.33,–,–,0.291
EMC-BAC-2,0.78,0.74,0.742,0.582,0.755,0.87,0.787,0.777,0.753,0.813,0.508,0.523,0.493,0.479,0.463,0.882,0.912,0.972,0.879,0.823
EPLC-272H,0.941,0.865,–,0.915,0.992,1.24,1.2,–,1,1.2,0.337,0.329,0.33,0.256,0.3,0.384,0.362,0.341,0.338,0.256
H3255,0.899,0.769,0.926,0.899,0.734,0.946,0.843,0.973,0.827,0.938,0.327,0.333,0.346,0.286,0.342,0.546,0.588,–,0.569,0.42
HARA,0.95,1.01,1,1,0.981,0.938,0.917,0.854,0.844,0.983,0.269,0.264,0.228,0.236,0.223,0.542,0.47,0.409,0.344,0.379
HCC-15,0.913,0.866,–,0.782,0.813,1.03,0.918,–,0.902,0.696,0.697,0.757,0.668,0.56,0.556,0.614,0.599,0.56,0.511,0.341
HCC-44,0.804,0.788,0.957,0.871,0.801,0.707,0.698,0.669,0.662,0.753,0.927,0.93,0.953,0.92,0.922,0.895,0.954,0.925,0.865,0.961
HCC-78,0.341,0.304,0.3,0.307,0.345,0.571,0.483,0.553,0.537,0.437,0.449,0.391,0.494,0.437,0.47,0.659,0.718,0.698,0.638,0.525
HCC-366,0.58,0.681,0.4,0.521,0.562,0.808,0.582,0.336,0.577,0.618,0.351,0.281,0.0795,0.0413,0.0782,0.209,0.154,0.0922,0.0502,0.0773

Cell Line,relative viability (Selisistat + Crizotinib; first compound 0.4 µM),relative viability (Selisistat + Crizotinib; first compound 1.265 µM),relative viability (Selisistat + Crizotinib; first compound 4 µM),relative viability (Selisistat + Crizotinib; first compound 12.65 µM),relative viability (Selisistat + Crizotinib; first compound 40 µM),relative viability (Selisistat + Linsitinib; first compound 0.4 µM),relative viability (Selisistat + Linsitinib; first compound 1.265 µM),relative viability (Selisistat + Linsitinib; first compound 4 µM),relative viability (Selisistat + Linsitinib; first compound 12.65 µM),relative viability (Selisistat + Linsitinib; first compound 40 µM),relative viability (Serdemetan + Palbociclib; first compound 0.04 µM),relative viability (Serdemetan + Palbociclib; first compound 0.1265 µM),relative viability (Serdemetan + Palbociclib; first compound 0.4 µM),relative viability (Serdemetan + Palbociclib; first compound 1.265 µM),relative viability (Serdemetan + Palbociclib; first compound 4 µM),relative viability (Serdemetan + Decitabine; first compound 0.04 µM),relative viability (Serdemetan + Decitabine; first compound 0.1265 µM),relative viability (Serdemetan + Decitabine; first compound 0.4 µM),relative viability (Serdemetan + Decitabine; first compound 1.265 µM),relative viability (Serdemetan + Decitabine; first compound 4 µM)
HCC-827,0.954,0.873,0.946,0.838,0.883,0.873,0.873,0.941,0.948,1.01,0.454,0.448,–,0.412,0.303,0.371,0.243,–,0.263,0.305
HOP-62,0.682,0.957,1.09,0.801,0.988,1.04,1.18,1.07,0.978,0.94,0.466,0.469,0.545,0.3,0.209,0.195,0.256,0.22,0.196,0.177
IA-LM,0.646,0.759,1.2,–,0.869,0.632,0.581,0.436,0.4,0.694,–,–,–,–,–,–,–,–,–,–
LC-2-ad,0.468,–,0.42,0.433,0.433,0.88,0.846,0.867,0.808,0.856,0.438,0.449,0.507,0.471,0.44,0.795,0.727,0.679,0.714,0.634
LCLC-97TM1,0.327,0.308,0.637,0.393,0.498,0.166,0.156,0.193,0.167,0.245,0.228,0.224,0.22,0.134,0.16,0.232,0.213,0.239,0.175,0.165
LCLC-103H,1.08,0.991,0.996,0.999,1.07,1.13,1.15,1.07,1.03,1.01,0.479,0.474,0.453,0.389,0.419,0.73,0.663,0.426,0.587,0.687
LK-2,0.234,0.255,0.245,0.231,0.24,0.265,0.437,0.341,0.519,0.619,0.69,0.704,0.778,0.517,0.496,0.37,0.29,0.274,0.223,0.283
NCI-H522,–,–,–,–,–,–,–,–,–,–,1.01,0.954,0.899,0.681,0.856,0.677,0.775,0.68,0.691,0.613
NCI-H596,1.11,0.898,0.853,0.991,0.905,1,1.11,1.03,1.23,0.999,–,–,–,–,–,0.965,0.94,0.772,0.636,0.588
NCI-H1299,0.944,1,0.946,0.944,1,1.06,1.01,0.996,0.974,0.991,–,–,–,–,–,–,–,–,–,–
NCI-H1395,–,–,–,–,–,1.16,1.28,1.02,1,0.521,0.605,0.643,0.626,0.555,0.436,0.772,0.694,0.687,0.637,0.57
NCI-H1563,0.804,0.737,0.835,0.803,0.776,1.08,1.15,1.17,1.07,0.83,–,–,–,–,–,–,–,–,–,–
NCI-H1648,–,–,–,–,–,–,–,–,–,–,–,0.233,0.242,0.219,0.212,–,0.533,0.424,0.3,0.302
NCI-H1650,1.09,0.966,0.909,0.899,0.955,–,–,–,–,–,0.318,0.275,0.282,0.257,0.262,0.408,0.435,0.411,0.422,0.266
NCI-H1703,0.578,0.556,0.626,0.559,0.904,0.316,0.703,0.627,0.724,0.932,–,–,–,–,–,–,–,–,–,–
NCI-H1793,–,–,–,–,–,0.977,0.822,–,1.01,1.17,0.355,0.325,0.308,0.242,0.271,0.46,0.449,0.361,0.219,0.231
NCI-H2170,1.2,1.16,1.22,1.15,1.26,–,–,–,–,–,0.362,0.428,0.411,0.301,0.382,0.419,0.497,0.437,0.417,0.361
NCI-H2228,0.529,0.49,0.362,0.442,0.379,0.857,0.566,0.562,0.656,0.598,0.644,0.61,0.511,0.115,0.233,–,–,–,–,–
NCI-H2342,–,–,–,–,–,–,–,–,–,–,0.528,0.494,0.508,0.481,0.489,0.753,0.776,0.643,0.531,0.475
SW 900,–,–,–,–,–,–,–,–,–,–,0.615,0.58,0.59,0.451,0.361,0.398,0.473,0.433,0.331,0.284

# Source: the supplement of paper PMC10307832
